The subject of one test is IGROV (ovarian). The experiment in a line: Growth inhibition, MTT assay, IGROV. Particulars: 72-h drug exposure, read-out: IC50 growth inhibitory activity. The class given is cell-based, human. The method, then: (§1) The growth inhibitory properties of representative compounds of the invention were also determined by evaluating their growth inhibitory activity against a series of human tumor cell lines using a 72-h drug exposure. Cell counts were measured using the MTT assay.
(In general: Tetrazolium dyes change colour on reduction, which living cells bring about.)

In a further test the test system is PC-3 (prostate). The experiment in a line: Growth inhibition, MTT assay, PC-3. Particulars: PC-3, 72-h drug exposure, read-out: IC50 growth inhibitory activity. Format: cell-based, human. The method, then:
as §1

The subject of the next test is HT-29 cells. The test is described as follows: Test A: in vitro cytotoxicity, clonogenic survival of HT-29 cells. Format: cell-based, human. Particulars: 2 h drug treatment, colonies after 10 days, concentration at which there is a 1% cell survival. The source says: (§2) Test A: In Vitro Cytotoxicity (Clonogenic Survival of HT-29 and BE Cells):
(§3) The human colon carcinoma cell line HT-29 was obtained from the American Type Culture Collection (ATCC), and the BE cell line was provided by Dr. D. Ross, University of Colorado. A modification of the procedure described by Miribelli et al Cancer Research, 1985, 45, 32–39 was used to determine the clonogenic survival of the cells. HT-29 and BE cells in exponential growth were suspended in unsupplemented Eagles MEM medium (10 mL) at a final density of 1.7–2×10^5 cells/mL. Unsupplemented medium contains Minimum Essential Medium (Gibco) and HEPES (0.02 M). The drug stock solutions (0.1–40 mM) were prepared using either ethanol or dimethyl sulfoxide as solvent. The maximum amount of DMSO or ethanol used in the drug treatments was 1% of the total volume. Appropriate volumes (6.5 to 100 μL) of the drug stock solution were added to five vials of the cell suspensions, to give five different final drug concentrations, and 100 μL of solvent was added to a sixth vial for a control. The treated cells were incubated for 2 h (37° C., 5% CO2). The cells were spun down and rinsed three times with supplemented medium (3 mL) and then diluted in 5 mL of supplemented medium. Supplemented medium is prepared by adding Fetal Bovine Serum (10%), gentamicin (0.05 mg/mL), L-glutamine (0.03 mg/mL), and sodium pyruvate (0.1 mM) to unsupplemented medium. The cells were counted using a Coulter Counter and then plated at 2–3 different densities for each drug concentration and incubated for 10 days. The colonies were stained with 0.5% crystal violet in 95% ethanol and those colonies comprised of 50 or more cells were counted using a microscope and pen-style counter. The LC99 of each compound (the concentration at which there is a 1% cell survival) was determined by plotting the log surviving fraction vs. drug concentration.

Another test relates to PaCa-2 (pancreas). The test is described as follows: Growth inhibition, MTT assay, PaCa-2. The class given is cell-based, human. The settings on record: PaCa-2, 72-h drug exposure, read-out: IC50 growth inhibitory activity. The method, then:
as §1

In the next test the test system is UMUC3 (bladder). The test is described as follows: Growth inhibition, MTT assay, UMUC3. Format: cell-based, human. Particulars: UMUC3, 72-h drug exposure, read-out: IC50 growth inhibitory activity. The method, then:
as §1

Test [1] is described as follows: Nucleophilic activation with sodium dimethyldithiocarbamate (DDTC) monitored by 31P NMR. The class given is physicochemical. The settings on record: DDTC 3 equiv, 3:4 THF:0.4 M cacodylate buffer, pH ~7.3, RT. As for the experimental part: (§4) The quinone was dissolved in CH3CN (0.3 mL, or THF for 16a) and the activating agent (glutathione, or sodium dithionite) was dissolved in cacodylate buffer (0.4 mL, 0.4 M, pH 7.7). The buffer solution was added to the organic solution and the pH of the mixture was adjusted to ˜7.4. The reaction mixture was transferred to a 5-mm NMR tube, and the data acquisition was started (pulse delay 30 μs). Spectra were taken every 2.5 minutes for 0.5 h, then every 5 min for 0.5 h, then every 10 min for 1 h, and time points for each spectrum were assigned from the initiation of the reaction. Chemical shifts are reported relative to the TPPO reference. The temperature of the probe was maintained at 37° C., if necessary, using the Bruker variable temperature unit. The relative concentrations of the intermediates were determined by measuring the peak areas.
The Michael addition of sulfur nucleophiles to naphthoquinones is well known; and addition to the 3-position of the quinone might provide another pathway for phosphorodiamidate anion release. Two possible products could be predicted from the Michael addition of a nucleophile to the naphthoquinone. […] Activation of 16a with DDTC (3 equiv, 3:4 THF:0.4 M cacodylate buffer, pH˜7.3, RT) was monitored using ^31P NMR. […]

A further test concerns MDA231 (breast). The experiment in a line: Growth inhibition, MTT assay, MDA231. Format: cell-based, human. Particulars: MDA231, 72-h drug exposure, read-out: IC50 growth inhibitory activity. The method, then: as §1
The next test relates to A549 (lung). The test is described as follows: Growth inhibition, MTT assay, A549. The class given is cell-based, human. The settings on record: A549, 72-h drug exposure, read-out: IC50 growth inhibitory activity. The method, then:
as §1

Another test has as its system BE cells. The experiment in a line: Test A: in vitro cytotoxicity, clonogenic survival of BE cells. The settings on record: 2 h drug treatment, colonies after 10 days, concentration at which there is a 1% cell survival. The class given is cell-based.
Source text: as §2, §3

For a further test, the system named is HT-29 (colon). The experiment in a line: Growth inhibition, MTT assay, HT-29. The class given is cell-based, human. The settings on record: HT-29, 72-h drug exposure, read-out: IC50 growth inhibitory activity. The method, then: as §1
The subject of test [2] is A4982LM cell line, a sub-line of the A498 human kidney carcinoma. The experiment in a line: Xenograft model, human tumor cells subcutaneously in nude mice. Format: in vivo. The settings on record: Day 38, single dose of 25 mg/kg subcutaneously. The method, then:
The cytotoxic properties of a compound of the invention can also be determined using in vivo pharmacological models which are well known to the art. For example, compound 16a was tested in a xenograft model. This assay consisted of injecting nude mice subcutaneously with human tumor cells. The tumors were allowed to grow until a measurable mass was present (22 days), and a single dose of 16a was administered subcutaneously. The tumor size was measured periodically and the growth inhibition of the tumor was determined. The A4982LM cell line, a sub-line of the A498 human kidney carcinoma, was used for the xenograft assay. The A4982LM sub-line, which has a high DT-diaphorase level (1010 nmol cytochrome c reduced/min/mg protein), was developed by implanting the A498 cell line in mice and collecting the lung metastases that formed from the original tumor.
Background: A xenograft is tissue or cells of one species grown in another, often human tumour cells in immunodeficient mice.

Another test concerns A498 (kidney). The test is described as follows: Growth inhibition, MTT assay, A498. The class given is cell-based, human. The settings on record: A498, 72-h drug exposure, read-out: IC50 growth inhibitory activity. As for the experimental part: as §1
The next test deals with human tumor cell lines. The test is described as follows: Growth inhibition, MTT assay, series of human tumor cell lines (all cell lines). The class given is cell-based. The settings on record: all cell lines of Table 2, 72-h drug exposure. The method, then:
as §1

A short description of test [3]: Releasing group activity: chemical reduction with sodium dithionite monitored by 31P NMR. The class given is physicochemical. Particulars: sodium dithionite 3 equiv, 3:4 CH3CN:0.4 M cacodylate buffer, pH ~7.4, 37° C. As for the experimental part:
as §4
Naphthoquinone 15a was reduced with sodium dithionite (3 equiv, 3:4 CH3CN:0.4 M cacodylate buffer, pH˜7.4, 37° C.), and the reaction was followed by ^31P NMR. The resonance for quinone […] at −5.3 ppm disappeared within 5 minutes and was replaced by the resonance for the corresponding phosphoramide mustard at −12.2 ppm.

The nature of test [4]: Activation by glutathione monitored by 31P NMR. The class given is physicochemical. The method, then:
as §4
Thus, the following study was conducted to determine whether glutathione would activate compounds of formula I in a similar way. Glutathione, the primary non-protein intracellular thiol, is responsible for maintaining the cellular redox environment and removing potential electrophilic cytotoxins. […] Thus, the reaction of 15a with glutathione (3 equiv, 1:1.3 CH3CN:0.4 M cacodylate buffer, pH˜7.5, RT) was monitored by ^31P NMR.

As a reminder, the pIC50 is the IC50 on a negative log10 scale, so that one unit is a factor of ten.

pIC50: −log10 of the molar value.

Take `NP(=O)(OCC1=CC(=O)c2ccccc2C1=O)N(CCBr)CCBr` (stereo not drawn) [Compound 16a, 2-(1,4-Naphthoquinonyl)methyl N,N-bis(2-bromoethyl) phosphorodiamidate]: the pIC50 in the test on IGROV (ovarian) was 4.72; in the test on PC-3 (prostate) it was 5.04; in the test on PaCa-2 (pancreas), 5.35; with UMUC3 (bladder), 5.55; in the test with MDA231 (breast) it was 4.83; in the test with A549 (lung) it was 5.34. The pIC50 in the test with HT-29 (colon) is 4.82; in the test on A498 (kidney), 4.81. Further, the values for the LC99 in the test with HT-29 cells and in the test with BE cells were 7.8 µM and 4.6 µM, respectively. For the same compound, the “time until quinone resonance disappeared and was replaced by phosphorodiamidate anion resonance” value in test [1] is recorded as at most 5 min. Moreover, the “growth inhibition of the tumor” value in test [2] was 40%. Besides, the “IC50 in words, against all cell lines” value in the test on human tumor cell lines is “low micromolar range”.
Regarding `NP(=O)(OCC1=CC(=O)c2ccccc2C1=O)N(CCCl)CCCl` (stereo not drawn) [Compound 15a, 2-(1,4-Naphthoquinonyl)methyl N,N-bis(2-chloroethyl) phosphorodiamidate], the “time until quinone resonance disappeared and was replaced by phosphoramide mustard resonance” value in [3] is at most 5 min. Further, the “time until quinone resonance disappeared and was replaced by phosphorodiamidate anion resonance” value in test [4] (glutathione 3 equiv, 1:1.3 CH3CN:0.4 M cacodylate buffer, pH ~7.5, RT) is at most 4 min. The “activation with one equivalent of glutathione, in words” value in [4] (only one equivalent of glutathione, compared with 3 equiv) is recorded as “essentially identical”. The LC99 in the test on HT-29 cells was 11 µM; in the test with BE cells, 13 µM.

The values are drawn from patent US7304046B2, “Phosphoramide compounds” (priority 1999, dated 2007).
